Patent publication US7459450B2, “Neuropeptide receptor modulators” (Schering Corporation, priority 2004, dated 2008)
pKi: −log10 of the molar value.

molecular target: T1, Human NPY Y1 receptors (Homo sapiens, UniProt P25929); experiment: NPY Receptor Binding Assay; details: Procedure E compounds, rated A/B/C
T1 construct: expressed in transfected cells; host or cells: CHO cells (membrane protein)
T1 sequence (P25929 1-384): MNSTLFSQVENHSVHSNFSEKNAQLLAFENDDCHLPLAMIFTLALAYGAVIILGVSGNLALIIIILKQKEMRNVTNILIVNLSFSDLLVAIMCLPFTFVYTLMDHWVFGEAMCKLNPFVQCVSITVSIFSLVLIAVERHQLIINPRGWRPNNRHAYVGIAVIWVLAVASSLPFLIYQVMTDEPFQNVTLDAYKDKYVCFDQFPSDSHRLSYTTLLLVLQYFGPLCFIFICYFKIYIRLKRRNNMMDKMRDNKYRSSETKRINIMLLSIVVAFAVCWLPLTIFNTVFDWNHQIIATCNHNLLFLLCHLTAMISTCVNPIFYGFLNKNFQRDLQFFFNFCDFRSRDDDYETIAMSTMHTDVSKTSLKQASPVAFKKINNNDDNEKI
Method: NPY Receptor Binding Assay
Human NPY Y1 receptors were expressed in CHO cells. Binding assays were performed in 50 mM HEPES, pH 7.2, 2.5 mM CaCl2, 1 mM MgCl2 and 0.1% BSA containing 5-10 μg of membrane protein and 0.1 nM […] in a total volume of 200 μl. Non-specific binding was determined in the presence of 1 μM NPY. The reaction mixtures were incubated for 90 minutes at room temperature then filtered through Millipore MAFC glass fiber filter plates which had been pre-soaked in 0.5% polyethleneimine. The filters were washed with phosphate-buffered saline, and radioactivity was measured in a Packard TopCount scintillation counter.

Row | Compound | pKi
1 | Cc1ccc2nc(NCCc3ccc(/N=C4/N[C@@H](Cc5c[nH]cn5)CS4)cc3)sc2c1 [Example 97] | 5.00 to 6.00
2 | CCC1CS/C(=N\c2ccc(CCNc3nc4ccc(Cl)cc4s3)cc2)N1 (stereo not shown) [Example 103] | 5.00 to 6.00
3 | CCCC1CS/C(=N\c2ccc(CCNc3nc4ccc(Cl)cc4s3)cc2)N1 (stereo not shown) [Example 105] | > 6.00
4 | C[C@@H]1CS/C(=N\c2ccc(CCNc3nc4ccc(Cl)cc4s3)cc2)N1 [Example 109] | 5.00 to 6.00
5 | CC[C@@H]1CS/C(=N\c2ccc(CCNc3nc4ccc(S(C)(=O)=O)cc4s3)cc2)N1 [Example 115] | 5.00 to 6.00
6 | CS(=O)(=O)c1ccc2nc(NCCc3ccc(/N=C4/N[C@@H](Cc5c[nH]cn5)CS4)cc3)sc2c1 [Example 116] | 5.00 to 6.00
7 | CS(=O)(=O)c1ccc2nc(NCCc3ccc(/N=C4/NC5(CCCC5)CS4)cc3)sc2c1 [Example 117] | 5.00 to 6.00
8 | CC1(C)CS/C(=N\c2ccc(CCNc3nc4ccc(S(C)(=O)=O)cc4s3)cc2)N1 [Example 118] | 5.00 to 6.00
9 | CC[C@@H]1CS/C(=N\c2ccc(CCNc3nc4ccc(F)cc4s3)cc2)N1 [Example 167] | > 6.00
10 | Fc1ccc2nc(NCCc3ccc(/N=C4/NC5(CCCC5)CS4)cc3)sc2c1 [Example 169] | > 6.00
11 | C[C@@H]1N/C(=N\c2cccc(CCNc3nc4ccccc4s3)c2)SC1c1ccccc1 (stereo partly shown) [Example 185] | > 6.00
12 | CC1CN/C(=N/c2ccc(CCNc3nc4cc(Cl)c(Cl)cc4s3)cc2)S1 (stereo not shown) [Example 190] | < 5.00
13 | C[C@@H]1N/C(=N/c2ccc(CCNc3nc4ccccc4s3)cc2)SC1c1ccccc1 (stereo partly shown) [Example 191] | < 5.00
14 | CC1CN/C(=N/c2ccc(CCNc3nc4ccccc4s3)cc2)S1 (stereo not shown) [Example 193] | < 5.00
15 | O=[N+]([O-])c1ccc2nc(NCCc3ccc(/N=C4/N[C@H]5c6ccccc6CC5S4)cc3)sc2c1 (stereo partly shown) [Example 194] | < 5.00
16 | c1ccc([C@@H]2CSC(Nc3ccc(CCNc4nc5ccccc5s4)cc3)=N2)cc1 [Example 196] | > 6.00
17 | CC1CCSC(Nc2ccc(CCNc3nc4ccccc4s3)cc2)=N1 (stereo not shown) [Example 200] | > 6.00
18 | c1ccc2sc(NCCc3ccc(NC4=NC(C5CCCCC5)CCS4)cc3)nc2c1 (stereo not shown) [Example 201] | > 6.00
19 | c1ccc2sc(NCCc3ccc(N=C4NCCCS4)cc3)nc2c1 [Example 202] | > 6.00

Row | Compound | pKi
20 | Cc1ccc2nc(NCCc3ccc(/N=C4/NC(c5ccccc5)CCS4)cc3)sc2c1 (stereo not shown) [Example 204] | > 6.00
21 | Fc1ccc2nc(NCCc3ccc(/N=C4/NC(c5ccccc5)CCS4)cc3)sc2c1 (stereo not shown) [Example 210] | > 6.00
22 | Clc1ccc2nc(NCCc3ccc(/N=C4/NC(c5ccccc5)CCS4)cc3)sc2c1 (stereo not shown) [Example 212] | > 6.00
23 | CCCCC1CS/C(=N\c2ccc(CCNc3nc4ccc(OC)cc4s3)cc2)N1 (stereo not shown) [Example 215] | > 6.00
24 | COc1ccc2nc(NCCc3ccc(/N=C4/N[C@H](C)CS4)cc3)sc2c1 [Example 218] | 5.00 to 6.00
25 | CC[C@@H]1CS/C(=N\c2ccc(CCNc3nc4ccc(OC)cc4s3)cc2)N1 [Example 219] | 5.00 to 6.00
26 | COc1ccc2nc(NCCc3ccc(/N=C4/NC5(CCCC5)CS4)cc3)sc2c1 [Example 220] | 5.00 to 6.00
27 | Cc1ccc2nc(NCCc3ccc(/N=C4\SC5CCC[C@H]5N4C)cc3)sc2c1 (stereo partly shown) [Example 223] | < 5.00
28 | Cc1ccc2nc(NCCc3ccc(/N=C4\SC5Cc6ccccc6[C@@H]5N4C4CC4)cc3)sc2c1 (stereo partly shown) [Example 224] | < 5.00
29 | C=C(C)CN1/C(=N/c2ccc(CCNc3nc4ccc(C)cc4s3)cc2)SC2Cc3ccccc3[C@@H]21 (stereo partly shown) [Example 225] | < 5.00
30 | Cc1ccc2nc(NCCc3ccc(/N=C4/NC(C)(C)CS4)cc3)sc2c1 [Example 227] | > 6.00
31 | COc1cccc2sc(NCCc3ccc(/N=C4\SC5Cc6ccccc6[C@@H]5N4C)cc3)nc12 (stereo partly shown) [Example 228] | < 5.00
32 | Clc1ccc2nc(NCCc3ccc(/N=C4/N[C@@H](Cc5c[nH]cn5)CS4)cc3)sc2c1 [Example 238] | 5.00 to 6.00
33 | Clc1ccc2nc(NCCc3ccc(/N=C4/NC5(CCCC5)CS4)cc3)sc2c1 [Example 239] | 5.00 to 6.00
34 | CC(C)C[C@@H]1CS/C(=N\c2ccc(CCNc3nc4ccc(S(C)(=O)=O)cc4s3)cc2)N1 [Example 245] | 5.00 to 6.00
35 | CCC1CS/C(=N\c2ccc(CCNc3nc4ccccc4s3)cc2)N1 (stereo not shown) [Example 263] | > 6.00
36 | CCCC1CS/C(=N\c2ccc(CCNc3nc4ccccc4s3)cc2)N1 (stereo not shown) [Example 264] | > 6.00
37 | C[C@@H]1CS/C(=N\c2ccc(CCNc3nc4ccccc4s3)cc2)N1 [Example 268] | > 6.00

Results, then the molecule that gave them:

Row | pKi | Compound
38 | > 6.00 | Cc1ccc2nc(NCCc3ccc(/N=C4/N[C@H](C)CS4)cc3)sc2c1 [Example 95]
39 | > 6.00 | CC[C@@H]1CS/C(=N\c2ccc(CCNc3nc4ccc(C)cc4s3)cc2)N1 [Example 96]
40 | 5.00 to 6.00 | CC(C)C[C@@H]1CS/C(=N\c2ccc(CCNc3nc4ccc(Cl)cc4s3)cc2)N1 [Example 100]
41 | 5.00 to 6.00 | CCCCC1CS/C(=N\c2ccc(CCNc3nc4ccc(Cl)cc4s3)cc2)N1 (stereo not shown) [Example 106]
42 | 5.00 to 6.00 | CC(C)[C@H]1CS/C(=N\c2ccc(CCNc3nc4ccc(Cl)cc4s3)cc2)N1 [Example 107]
43 | > 6.00 | CC[C@@H]1CS/C(=N\c2ccc(CCNc3nc4ccc(Cl)cc4s3)cc2)N1 [Example 110]
44 | 5.00 to 6.00 | CCCCC1CS/C(=N\c2ccc(CCNc3nc4ccc(S(C)(=O)=O)cc4s3)cc2)N1 (stereo not shown) [Example 111]
45 | 5.00 to 6.00 | C[C@@H]1CS/C(=N\c2ccc(CCNc3nc4ccc(S(C)(=O)=O)cc4s3)cc2)N1 [Example 114]
46 | > 6.00 | CC(C)C[C@@H]1CS/C(=N\c2ccc(CCNc3nc4ccccc4s3)cc2)N1 [Example 134]
47 | < 5.00 | CN1CCS/C1=N/c1cccc(CCNc2nc3ccccc3s2)c1 [Example 182]
48 | < 5.00 | c1ccc(/N=C2\N[C@H]3c4ccccc4CC3S2)c(CCNc2nc3ccccc3s2)c1 (stereo partly shown) [Example 183]
49 | < 5.00 | c1cc(CCNc2nc3ccccc3s2)cc(/N=C2\N[C@H]3c4ccccc4CC3S2)c1 (stereo partly shown) [Example 184]
50 | < 5.00 | c1ccc(C2CN/C(=N\c3cccc(CCNc4nc5ccccc5s4)c3)S2)cc1 (stereo not shown) [Example 186]
51 | < 5.00 | CC1CN/C(=N\c2cccc(CCNc3nc4ccccc4s3)c2)S1 (stereo not shown) [Example 187]
52 | < 5.00 | Cc1cccc2sc(NCCc3ccc(/N=C4/NCC(c5ccccc5)S4)cc3)nc12 (stereo not shown) [Example 188]
53 | < 5.00 | CC1CN/C(=N/c2ccc(CCNc3nc4ccc(S(C)(=O)=O)cc4s3)cc2)S1 (stereo not shown) [Example 189]
54 | < 5.00 | c1ccc(C2CN/C(=N/c3ccc(CCNc4nc5ccccc5s4)cc3)S2)cc1 (stereo not shown) [Example 192]
55 | > 6.00 | c1ccc(CCC2CCSC(Nc3ccc(CCNc4nc5ccccc5s4)cc3)=N2)cc1 (stereo not shown) [Example 197]
56 | > 6.00 | Clc1cccc(C2CCSC(Nc3ccc(CCNc4nc5ccccc5s4)cc3)=N2)c1 (stereo not shown) [Example 198]
57 | > 6.00 | Clc1ccccc1C1CCSC(Nc2ccc(CCNc3nc4ccccc4s3)cc2)=N1 (stereo not shown) [Example 199]

Row | pKi | Compound
58 | > 6.00 | COc1ccc2nc(NCCc3ccc(/N=C4/NC(c5ccccc5)CCS4)cc3)sc2c1 (stereo not shown) [Example 203]
59 | > 6.00 | Cc1ccc2nc(NCCc3ccc(N=C4NCCCS4)cc3)sc2c1 [Example 205]
60 | < 5.00 | COc1cccc2sc(NCCc3ccc(/N=C4/NC(c5ccccc5)CCS4)cc3)nc12 (stereo not shown) [Example 206]
61 | < 5.00 | COc1cccc2sc(NCCc3ccc(/N=C4/NCCCS4)cc3)nc12 [Example 207]
62 | < 5.00 | Cc1cccc2sc(NCCc3ccc(/N=C4/NC(c5ccccc5)CCS4)cc3)nc12 (stereo not shown) [Example 208]
63 | < 5.00 | Cc1cccc2sc(NCCc3ccc(/N=C4/NCCCS4)cc3)nc12 [Example 209]
64 | > 6.00 | Fc1ccc2nc(NCCc3ccc(/N=C4/NCCCS4)cc3)sc2c1 [Example 211]
65 | > 6.00 | Clc1ccc2nc(NCCc3ccc(NC4=NCCCS4)cc3)sc2c1 [Example 213]
66 | > 6.00 | CCCC1CS/C(=N\c2ccc(CCNc3nc4ccc(OC)cc4s3)cc2)N1 (stereo not shown) [Example 214]
67 | 5.00 to 6.00 | COc1ccc2nc(NCCc3ccc(/N=C4/N[C@@H](C(C)C)CS4)cc3)sc2c1 [Example 216]
68 | < 5.00 | COc1ccc2nc(NCCc3ccc(/N=C4/N[C@@H](c5ccccc5)CS4)cc3)sc2c1 [Example 217]
69 | 5.00 to 6.00 | COc1ccc2nc(NCCc3ccc(/N=C4/NC(C)(C)CS4)cc3)sc2c1 [Example 221]
70 | < 5.00 | Cc1ccc2nc(NCCc3ccc(/N=C4\SC5Cc6ccccc6[C@@H]5N4C)cc3)sc2c1 (stereo partly shown) [Example 222]
71 | 5.00 to 6.00 | Cc1ccc2nc(NCCc3ccc(/N=C4/NC5(CCCC5)CS4)cc3)sc2c1 [Example 226]
72 | < 5.00 | COc1cccc2sc(NCCc3ccc(/N=C4\SC5Cc6ccccc6[C@@H]5N4C4CC4)cc3)nc12 (stereo partly shown) [Example 229]
73 | < 5.00 | COc1cccc2sc(NCCc3ccc(/N=C4\SCCN4C)cc3)nc12 [Example 230]
74 | 5.00 to 6.00 | CC1(C)CS/C(=N\c2ccc(CCNc3nc4ccc(Cl)cc4s3)cc2)N1 [Example 240]
75 | 5.00 to 6.00 | CCCC1CS/C(=N\c2ccc(CCNc3nc4ccc(S(C)(=O)=O)cc4s3)cc2)N1 (stereo not shown) [Example 249]
76 | > 6.00 | CC[C@@H]1CS/C(=N\c2ccc(CCNc3nc4ccccc4s3)cc2)N1 [Example 269]
